Legend:
Assay in all cases: relative viability (nuclei count vs DMSO), 5 days (fraction); higher = more cells survive
[1] = compound: C[C@@H](N)c1ccc(C(=O)Nc2ccnc3[nH]ccc23)cc1 + CS(=O)(=O)N1CCN(Cc2cc3nc(-c4cccc5[nH]ncc45)nc(N4CCOCC4)c3s2)CC1 [Pictilisib] (partner 1 µM)
Summary of the method: (§1)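 Relative viability divides the nuclei count in treated wells by that in vehicle wells. Lung cancer cell lines were seeded in 1536-well plates, dosed by pin tool the next day, and fixed and stained after 5 days in one step with final 0.05% Triton X-100, 1% formaldehyde and 1 ug/ml Hoechst. Dosing was a single drug or a fixed anchor-drug dose plus five library-drug doses (not always all listed) in √10 steps, and values are medians of duplicate plates imaged at 4×.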

[2] = compound: C[C@@H](N)c1ccc(C(=O)Nc2ccnc3[nH]ccc23)cc1 + C[C@]1(O)C[C@@H](c2nc(-c3ccc4ccc(-c5ccccc5)nc4c3)c3c(N)nccn32)C1 [Linsitinib] (partner 1 µM)
Summary of the method: as §1

[3] = compound: O[C@H]1CC[C@H](Nc2ncc3nc(Nc4c(F)cc(F)cc4F)n([C@H]4CCOC4)c3n2)CC1 [Tanzisertib] + CC(=O)c1c(C)c2cnc(Nc3ccc(N4CCNCC4)cn3)nc2n(C2CCCC2)c1=O [Palbociclib] (partner 0.5 µM)
Summary of the method: as §1

Tanzisertib + Pemetrexed = compound: O[C@H]1CC[C@H](Nc2ncc3nc(Nc4c(F)cc(F)cc4F)n([C@H]4CCOC4)c3n2)CC1 [Tanzisertib] + Nc1nc2[nH]cc(CCc3ccc(C(=O)N[C@@H](CCC(=O)O)C(=O)O)cc3)c2c(=O)[nH]1 [Pemetrexed] (partner 0.2 µM)
Summary of the method: as §1

Row | Cell Line | relative viability ([1]; first compound 0.04 µM) | relative viability ([1]; first compound 0.1265 µM) | relative viability ([1]; first compound 0.4 µM) | relative viability ([1]; first compound 1.265 µM) | relative viability ([1]; first compound 4 µM) | relative viability ([2]; first compound 0.04 µM) | relative viability ([2]; first compound 0.1265 µM) | relative viability ([2]; first compound 0.4 µM) | relative viability ([2]; first compound 1.265 µM) | relative viability ([2]; first compound 4 µM) | relative viability ([3]; first compound 0.08 µM) | relative viability ([3]; first compound 0.253 µM) | relative viability ([3]; first compound 0.8 µM) | relative viability ([3]; first compound 2.53 µM) | relative viability ([3]; first compound 8 µM) | relative viability (Tanzisertib + Pemetrexed; first compound 0.08 µM) | relative viability (Tanzisertib + Pemetrexed; first compound 0.253 µM) | relative viability (Tanzisertib + Pemetrexed; first compound 0.8 µM) | relative viability (Tanzisertib + Pemetrexed; first compound 2.53 µM) | relative viability (Tanzisertib + Pemetrexed; first compound 8 µM)
1 | NCI-H2347 | 0.472 | 0.667 | 0.727 | 0.832 | 0.796 | 0.937 | 0.868 | 1.02 | 1.02 | 0.8 | 0.466 | 0.457 | 0.452 | 0.444 | 0.435 | 0.454 | 0.468 | 0.435 | 0.408 | 0.442
2 | LXF-289 | 0.943 | 0.779 | 0.928 | 0.872 | 0.683 | 1.02 | 0.995 | 0.997 | 1.09 | 0.88 | 0.596 | 0.592 | 0.647 | 0.574 | 0.65 | 0.902 | 0.923 | 1.01 | 0.915 | 1.02
3 | NCI-H1793 | 0.251 | 0.437 | 0.327 | – | 0.402 | 1.02 | 0.878 | 0.83 | – | 0.787 | 0.306 | 0.326 | 0.347 | 0.293 | 0.303 | 1.07 | 0.914 | 0.976 | 0.766 | 0.828
4 | LU99A | 0.307 | 0.319 | 0.385 | 0.297 | 0.324 | 0.607 | 0.569 | 0.586 | 0.617 | 0.509 | 0.405 | 0.377 | 0.378 | 0.399 | 0.389 | 0.167 | 0.191 | 0.172 | 0.159 | 0.19
5 | PC-14 | 0.679 | 0.699 | 0.684 | 0.665 | 0.612 | 0.927 | 0.907 | 0.924 | 0.819 | 0.725 | 0.681 | 0.533 | 0.589 | 0.532 | 0.208 | 0.134 | 0.131 | 0.129 | 0.0897 | 0.104
6 | NCI-H2085 | 0.6 | 0.63 | 0.581 | 0.704 | 0.606 | 1.02 | 0.907 | 0.905 | 0.868 | 0.777 | – | 0.456 | 0.454 | 0.455 | 0.505 | – | 0.934 | 0.942 | 0.841 | 0.765
7 | HCC-78 | 0.509 | 0.318 | 0.297 | 0.137 | 0.254 | 0.776 | 0.518 | 0.804 | 0.735 | 0.424 | 0.405 | 0.474 | 0.488 | 0.514 | 0.472 | 0.965 | 0.901 | 0.915 | 0.882 | 0.934
8 | NCI-H1395 | 0.566 | 0.626 | 0.655 | – | 0.627 | 1.05 | 1.14 | 1.24 | – | 0.878 | 0.71 | 0.574 | 0.607 | 0.618 | 0.632 | 0.868 | 0.88 | 0.971 | 0.939 | 0.788
9 | NCI-H2126 | 0.632 | 0.494 | 0.55 | 0.349 | 0.6 | 0.726 | 0.72 | 0.805 | 0.705 | 0.781 | 0.34 | 0.355 | 0.349 | 0.37 | 0.324 | 0.674 | 0.69 | 0.728 | 0.723 | 0.515
10 | H3255 | 0.496 | 0.576 | 0.608 | 0.581 | 0.515 | 0.997 | 1.04 | 1.26 | 0.957 | 0.947 | 0.297 | 0.301 | 0.327 | 0.336 | 0.31 | 0.555 | 0.528 | 0.525 | 0.526 | 0.441
11 | HCC-15 | 0.821 | 0.705 | 0.796 | – | 0.731 | 0.951 | 0.888 | 0.845 | – | 0.797 | 0.794 | 0.73 | 0.737 | 0.752 | 0.713 | 0.228 | 0.208 | 0.199 | 0.207 | 0.21
12 | NCI-H661 | 0.433 | 0.54 | 0.454 | 0.351 | 0.509 | 0.558 | 0.582 | 0.623 | 0.441 | 0.508 | 0.424 | 0.406 | 0.423 | 0.386 | 0.415 | 0.896 | 0.896 | 0.872 | 0.919 | 0.913
13 | NCI-H2009 | 0.77 | 0.768 | 0.886 | 0.22 | 0.753 | 1.21 | 1.06 | 1.01 | 0.966 | 0.709 | 0.201 | 0.209 | 0.263 | 0.278 | 0.187 | 1.01 | 1.03 | 0.957 | 1.04 | 1.1
14 | HCC-44 | 0.789 | 0.508 | 0.656 | 0.571 | 0.482 | 0.703 | 0.682 | 0.708 | 0.713 | 0.532 | 1.02 | 1.03 | 0.94 | 0.955 | 1.1 | 0.642 | 0.637 | 0.597 | 0.624 | 0.688
15 | COR-L23 | 0.621 | 0.867 | 0.799 | 0.591 | 0.562 | 0.968 | 0.925 | 0.874 | 0.744 | 0.442 | 0.325 | 0.331 | 0.336 | 0.275 | 0.298 | 0.2 | 0.209 | 0.188 | 0.201 | 0.191
16 | EMC-BAC-2 | 0.491 | 0.575 | 0.531 | 0.476 | 0.411 | 0.84 | 0.846 | 0.738 | 0.827 | 0.613 | 0.537 | 0.513 | 0.463 | 0.509 | 0.495 | 0.429 | 0.427 | 0.432 | 0.451 | 0.469
17 | LCLC-103H | 0.756 | 0.616 | 0.54 | 0.482 | 0.584 | 1.18 | 1.06 | 1.2 | 1.01 | 1.11 | 0.519 | 0.466 | 0.486 | 0.456 | 0.465 | 0.521 | 0.472 | 0.451 | 0.432 | 0.468
18 | LK-2 | 0.79 | 0.537 | 0.739 | – | 0.822 | 0.822 | 0.542 | 0.809 | 0.554 | 0.721 | 0.526 | 0.618 | 0.798 | 0.659 | 0.749 | 0.294 | 0.273 | 0.161 | 0.234 | 0.244
19 | SW 1573 | 0.467 | 0.56 | 0.543 | 0.539 | 0.43 | 0.763 | 0.873 | 0.82 | 0.861 | 0.622 | 0.444 | 0.455 | 0.333 | 0.456 | 0.316 | 0.809 | 0.84 | 0.805 | 0.839 | 0.683
20 | NCI-H2405 | – | 0.433 | 0.399 | 0.194 | 0.207 | – | 1.07 | 0.744 | 0.599 | 0.45 | 0.508 | 0.502 | 0.55 | 0.546 | 0.47 | 1.1 | 1.1 | 1 | 1.24 | 0.955
21 | NCI-H2087 | 1.04 | 0.78 | 0.908 | 0.153 | 0.797 | 1 | 0.823 | 0.916 | 0.824 | 0.478 | 0.256 | 0.308 | 0.254 | 0.235 | 0.255 | 0.702 | 0.661 | 0.668 | 0.691 | 0.706
22 | NCI-H460 | 0.467 | 0.252 | 0.489 | 0.0436 | 0.372 | 0.857 | 0.729 | 0.823 | 0.954 | 0.599 | 0.199 | 0.193 | 0.113 | 0.161 | 0.13 | 0.0668 | 0.0601 | 0.0628 | 0.0601 | 0.0429
23 | LOU-NH91 | 0.517 | 0.517 | 0.562 | 0.398 | 0.549 | 0.831 | 0.979 | 0.778 | 0.726 | 0.702 | 0.584 | 0.558 | 0.532 | 0.556 | 0.414 | 0.42 | 0.42 | 0.399 | 0.403 | 0.387
24 | NCI-H1651 | 0.663 | 0.646 | 0.684 | 0.808 | 0.799 | 1.12 | 0.932 | 0.987 | 1.13 | 0.994 | 0.552 | 0.537 | 0.508 | 0.502 | 0.519 | 0.586 | 0.625 | 0.436 | 0.6 | 0.513
25 | NCI-H441 | 0.549 | 0.569 | 0.553 | 0.4 | 0.458 | 0.626 | 0.571 | 0.64 | 0.483 | 0.45 | 0.236 | 0.224 | 0.241 | 0.194 | 0.154 | 0.27 | 0.241 | 0.286 | 0.24 | 0.27

— the supplement of paper PMC10307832
